Article PMC8311653, “Design, Synthesis, In Vitro and In Vivo Characterization of Selective NKCC1 Inhibitors for the Treatment of Core Symptoms in Down Syndrome” (Journal of Medicinal Chemistry, 2021)

Tests used:
[1] = Aqueous kinetic solubility in PBS pH 7.4; format: physicochemical; details: aqueous kinetic solubility from 10 mM DMSO solution in PBS pH 7.4, target concentration 250 μM (final DMSO 2.5%)
Method: 1. Aqueous kinetic solubility.
30 µL aliquots of 10 mM DMSO stock solution of the test compound were incubated in Phosphate
Buffered Saline (PBS) at pH 7.4 at 25°C for 24h. After centrifugation the dissolved compound in the
supernatant was quantified by LC-MS/MS.
Aqueous kinetic solubility was determined by UV quantification at
215 nm. […]

[2] = In vitro metabolic stability in mouse liver microsomes; details: tissue homogenate, pH 7.4
Method in brief: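 Compound incubated in mouse liver microsomes in 0.1M Tris-HCl pH 7.4 with 10% DMSO; after pre-incubation NADPH, G6P, G6PDH and MgCl2 added, then 37 °C for 1h, sampled at 0, 5, 15, 30, 60 min.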

[3] = target: T1, NKCC1 (Mus musculus, UniProt P55012); test: Ca2+ influx assay in immature primary neuronal cultures (indirect measure of NKCC1 inhibition); format: cell-based
T1 construct: primary neuronal cultures of dissociated hippocampal neurons were prepared from E18 C57BL/6J mice; endogenous in cells; host or cells: primary hippocampal neurons from E18 C57BL/6J mice, 3 DIV
T1 sequence (P55012 1-1205): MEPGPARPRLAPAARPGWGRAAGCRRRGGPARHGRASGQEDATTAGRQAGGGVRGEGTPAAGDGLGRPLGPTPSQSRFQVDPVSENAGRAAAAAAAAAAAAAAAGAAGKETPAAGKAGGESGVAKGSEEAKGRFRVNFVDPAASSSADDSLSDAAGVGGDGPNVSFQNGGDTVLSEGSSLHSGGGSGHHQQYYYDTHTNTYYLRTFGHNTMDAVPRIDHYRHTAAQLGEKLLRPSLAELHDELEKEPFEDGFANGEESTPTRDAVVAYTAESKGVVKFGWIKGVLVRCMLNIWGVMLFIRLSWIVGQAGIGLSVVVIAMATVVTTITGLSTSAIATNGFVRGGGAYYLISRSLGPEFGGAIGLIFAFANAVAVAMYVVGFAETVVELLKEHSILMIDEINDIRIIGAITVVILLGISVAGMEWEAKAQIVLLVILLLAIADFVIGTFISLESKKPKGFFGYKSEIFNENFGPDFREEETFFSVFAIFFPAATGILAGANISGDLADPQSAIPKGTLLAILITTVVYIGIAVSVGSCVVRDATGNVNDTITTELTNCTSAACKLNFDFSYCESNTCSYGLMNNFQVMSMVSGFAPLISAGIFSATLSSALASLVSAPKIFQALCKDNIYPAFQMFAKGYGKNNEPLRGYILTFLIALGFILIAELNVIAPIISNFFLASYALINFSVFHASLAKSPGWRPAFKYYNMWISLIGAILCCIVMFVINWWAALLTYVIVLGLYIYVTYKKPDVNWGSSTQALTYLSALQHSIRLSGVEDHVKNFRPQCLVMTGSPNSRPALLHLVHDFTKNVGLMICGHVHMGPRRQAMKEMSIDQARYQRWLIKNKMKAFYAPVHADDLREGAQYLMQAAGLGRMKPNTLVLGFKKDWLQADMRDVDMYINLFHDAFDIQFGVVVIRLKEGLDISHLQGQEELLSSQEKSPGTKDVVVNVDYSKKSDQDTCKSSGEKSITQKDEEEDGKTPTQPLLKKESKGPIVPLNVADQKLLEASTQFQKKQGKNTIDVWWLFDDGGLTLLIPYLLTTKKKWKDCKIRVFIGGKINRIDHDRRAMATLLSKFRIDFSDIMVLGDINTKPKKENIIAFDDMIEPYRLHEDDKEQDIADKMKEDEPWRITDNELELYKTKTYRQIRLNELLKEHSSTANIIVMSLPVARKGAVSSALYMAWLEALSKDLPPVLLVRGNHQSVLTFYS
Method: To perform the Ca^2+-influx assay, primary neuronal cultures of dissociated hippocampal neurons were prepared from E18 C57BL/6J mice (Charles River) as previously described[56] and plated in 96-well black-walled, clear-bottomed plates coated with poly-L-lysine (Sigma; 0.1 mg/mL in 100 mM borate buffer, pH 8.5) at a density of 30,000 cells per well. Neurons were maintained in neurobasal medium supplemented with 2% B-27 supplement, 0.5 mM glutamine, 50 U/mL of penicillin, and 50 μg/mL of streptomycin (all from Gibco). The cells were incubated at 37 °C and 5% CO2 until DIV 3 for the Ca^2+ influx assay.
At 3 DIVs, neurons were loaded with 2.5 μM of the Ca^2+-sensitive day Fluo4-AM (Invitrogen) in extracellular solution (145 mM NaCl, 5 mM KCl, 10 mM HEPES, 5.55 mM glucose, 1 mM MgCl2, and 2 mM CaCl2, pH 7.4). After 15 min, cells were washed twice with extracellular solutions and treated with bumetanide (as a positive control), DMSO (as a negative control), or each of our compounds at 10 μM or 100 μM, in extracellular solution for 15 min. Plates were then loaded onto a Spark (Tecan) multiplate reader equipped with an automatic liquid injector system, and Fluo4 fluorescence was recorded with excitation at 485 nm and emission at 535 nm. For each well, fluorescence was first recorded for 20 s of the baseline and for 20 s after delivery of GABA (100 μM). To evaluate neuronal viability, fluorescence was recorded for an additional 20 s after delivery of a depolarizing KCl stimulus (90 mM final concentration in wells). To represent the fluorescent traces in time, we normalized the fluorescence value for each time point to the average of the fluorescence value for the first 20 s of the baseline (ΔF/F0). To quantify the average effects as represented by the bar plots, we measured the maximum peak increase in ΔF/F0 fluorescence upon GABA application normalized over the maximum peak increase in ΔF/F0 fluorescence upon KCl application. We then presented in the figures all the data as a percentage of the fluorescence increase versus the value of the control DMSO.

[4] = phosphate buffered saline (PBS)
[5] = 100 μM, cultured neurons, 3 DIV

Row | Structure (SMILES) | solubility at 24 h [1, 4] | half-life at 5 μM [2] | inhibition at 10 µM ([3]; cultured neurons, 3 DIV) | inhibition at 100 µM [3, 5] | Inhibition 100 μM Ca2+ influx (%) [3, 5] | inhibition of NKCC1 in the Ca2+ influx assay (dose dependence) ([3]; neuronal cultures, Figures 4A and S2) | solubility at 24 h [1]
1 | CN(C)S(=O)(=O)c1cc(C(=O)O)ccc1NCCCCCCCC(F)(F)F [Compound 1, 3-(-N,N-Dimethylsulfamoyl)-4-(8,8,8-trifluorooctylamino)benzoic Acid] | > 250 µM | > 1 h | 45.7 ± 4.3% | 92.8 ± 1.9% | – | – | –
2 | CN(C)S(=O)(=O)c1cc(C(=O)O)c(O)cc1NCCCCCCCC(F)(F)F [Compound 40, 5-(N,N-Dimethylsulfamoyl)-2-hydroxy-4-((8,8,8-trifluorooctyl)amino)benzoic Acid] | > 250 µM | > 1 h | 13.9 ± 2% | 51.8 ± 4% | 51.9 ± 4.0% | significant dose-dependent inhibition | –
3 | CCCCNc1cc(C(=O)O)cc(S(N)(=O)=O)c1Oc1ccccc1 [bumetanide, reference compound] | – | > 1 h | 51.9 ± 2.3% | 54.7 ± 2.5% | – | – | > 250 µM
